Assay results as given in patent US20230355597A1, “COMPOUNDS, COMPOSITIONS, AND METHODS FOR THE TREATMENT AND PREVENTION OF AVIAN PATHOGENIC E. COLI (APEC)” (OHIO STATE INNOVATION FOUNDATION, priority 2018, published 2023).

Assays:
APEC O78 in HD-11 cells = assay: Intracellular survival assay (AI-2 inhibitors); format: cell-based, avian pathogenic Escherichia coli (APEC); settings: O78, HD-11, 100 µM, 6 h
Description: Intracellular survival assay.

[1] = system: QS and virulence associated genes of APEC O78; assay: qRT-PCR of QS-regulated and virulence factors genes; format: cell-based, avian pathogenic Escherichia coli (APEC); settings: 100 µM, 10 h
Caco-2 cells = assay: LDH assay of AI-2 inhibitors; settings: Caco-2, 100 µM, 24 h
APEC O2 in HD-11 cells = assay: Intracellular survival assay (AI-2 inhibitors); settings: O2, HD-11, 100 µM, 6 h
APEC O78 in THP-1 cells = assay: Intracellular survival assay (AI-2 inhibitors); settings: O78, THP-1, 100 µM, 6 h, vs DMSO
APEC O2 in THP-1 cells = assay: Intracellular survival assay (AI-2 inhibitors); settings: O2, THP-1, 100 µM, 6 h
[2] = system: AI-2 activity of APEC O78; assay: AI-2 bioluminescence indicator assay (V. harveyi BB170); settings: APEC O78, 100 µM
AI-2 activity of APEC O2 = assay: as above; settings: APEC O2, 100 µM
AI-2 activity of APEC O1 = assay: as above; settings: APEC O1, 100 µM
AI-2 activity of APEC O8 = assay: as above; settings: APEC O8, 100 µM
[3] = system: AI-2 activity of APEC O15; assay: as above; settings: APEC O15, 100 µM
[4] = system: AI-2 activity of APEC O18; assay: as above; settings: APEC O18, 100 µM
[5] = system: AI-2 activity of APEC O35; assay: as above; settings: APEC O35, 100 µM
[6] = system: AI-2 activity of APEC O109; assay: as above; settings: APEC O109, 100 µM
Rif^r APEC O78 [7] = assay: In vivo screening of quorum sensing inhibitors in APEC infected broiler chickens; settings: for reduction in chicken mortality: DMSO control mortality normalized to 100%; for Mortality rate (%): oral gavage once a day, day 4 to day 8, DMSO control 66.7%; for Reduction in APEC lesions severity, Air-sacs (%) / Reduction in APEC lesions severity, Heart (%) / Reduction in APEC lesions severity, Liver (%) / Reduction in APEC lesions severity, Lung (%): vs DMSO treated control
[8] = system: APEC O78 biofilm formation; assay: Biofilm assay (crystal violet); format: cell-based, avian pathogenic Escherichia coli (APEC); settings: 100 µM, 48 h
Experimental: Biofilm assay. […] Briefly, APEC O78 was grown in LB broth in the presence of 100 µM of each compound in a 96-well plate at 37° C. for 10 h. The culture was then diluted 1:100 in fresh LB broth. The biofilm assay was performed in 96-well plate contain 150 µL of the diluted culture and 100 µM of each compound. The plate was then incubated aerobically without shaking at 37° C. for 48 h, washed twice with PBS to remove the non-adherent cells and stained with 200 µL of 0.1% CV in water at room temperature for 10 min. The plate was washed with PBS and biofilm was quantified by measuring the absorbance at 550 nm after solubilizing the CV in 200 µL of 30% acetic acid in water for 15 min.

[9] = system: AI-2 activity of APEC O115; assay: AI-2 bioluminescence indicator assay (V. harveyi BB170); settings: APEC O115, 100 µM
Rif^r APEC O78 [10] = assay: Wax moth (Galleria mellonella) larva infection model (AI-2 inhibitors); settings: 72 h post treatment

Structure (SMILES) | Inhibition % of AI-2 activity [2] [%] | Inhibition % of AI-2 activity (AI-2 activity of APEC O2) [%] | Inhibition % of AI-2 activity (AI-2 activity of APEC O8) [%] | Inhibition % of AI-2 activity [3] [%] | Inhibition % of AI-2 activity [4] [%] | Inhibition % of AI-2 activity [5] [%] | Inhibition % of AI-2 activity [6] [%] | reduction in chicken mortality (Rif^r APEC O78 [7]) [%] | Mortality rate (%) (Rif^r APEC O78 [7]) | Reduction in APEC lesions severity, Air-sacs (%) (Rif^r APEC O78 [7]) | Reduction in APEC lesions severity, Heart (%) (Rif^r APEC O78 [7]) | Reduction in APEC lesions severity, Liver (%) (Rif^r APEC O78 [7]) | Reduction in APEC lesions severity, Lung (%) (Rif^r APEC O78 [7]) | other results
OCCC1CN(C2CCN(c3ccccc3)CC2)CCN1CCCc1ccccc1 (stereo not drawn) [C10] | 84 | 89 | 0 | 22 | 35 | 47 | 57 | 75 | 16.6 | 88.9 | 83.3 | 100 | 100 | clearance of intracellular APEC (APEC O78 in HD-11 cells): 100%; reduction of intracellular survival (APEC O78 in HD-11 cells; vs DMSO): 4 logs; expression of fliP [1]: down-regulated; toxicity (LDH) (Caco-2 cells): 27%; clearance of intracellular APEC (APEC O2 in HD-11 cells): 100%; reduction of intracellular survival (APEC O2 in HD-11 cells; vs DMSO): 3.3 logs; reduction of intracellular survival (APEC O78 in THP-1 cells): up to 0.7 logs; clearance of intracellular APEC (APEC O2 in THP-1 cells): 100%; reduction of intracellular survival (APEC O2 in THP-1 cells; vs DMSO): 4 logs; Inhibition % of AI-2 activity (AI-2 activity of APEC O1): 64%; average lesion score reduction (Rif^r APEC O78 [7]; liver, heart, lung and airsac, vs DMSO): 1.5-2.3; reduction of bacterial load in internal organs (Rif^r APEC O78 [7]; liver, lung, heart, and kidney, vs DMSO control, 'up to'): 3.4-4.3 log CFU/g
COCCN1CCC(CN(Cc2ccncc2)Cc2ccccc2Cl)CC1 [C1, {2-chlorobenzyl)([1(2-methoxyethyly-4-piperidinyl]methyl)4-pyridinyimethyl)amine] | 84 | 94 | 20 | 13 | 37 | 48 | 65 | 25 | 50 | 26.7 | 0 | 0 | 66.7 | induction of biofilm formation of APEC O78 [8]: up to 100%; expression of murD [1]: down-regulated; Inhibition % of AI-2 activity [9]: 64%; larval death (Rif^r APEC O78 [10]): no larval death
